Assay results published in US4971980A, “Pharmacologically active benzimidazole derivatives” (Dompe Farmaceutici S.p.A., priority 1988, dated 1990).

How the values were obtained:
[1] = tested on: mortality induced by histamine; test: Effect on the mortality induced by histamine; format: in vivo, male albino guinea pigs (Dunkin-Hartley); details: Cavia porcellus, po; guinea pigs, os, 60 minutes before 1,25 mg/kg i.v. histamine dihydrochloride; parentheses: range
Method: The method described by Romer D. et al. (Med.Welt, 17, 791, 1966) was followed and the tests were carried out on male albino guinea pigs (Dunkin-Hartley), weighing 350-450 g, which were kept in cages with a grid floor, on an empty stomach for 24 hrs with water ad libitum.
The compounds under examination were dissolved in 0,5% carboxymethylcellolose and orally administered to the animals; 60 minutes later the same animals were intravenously treated with 1,25 mg/kg of histamine dihydrochloride in saline solution.
It was evaluated ED50 which corresponds to the amount of the compound able to inhibit 50% of the mortality induced by histamine: the estimation of ED50 was carried out applying the `probit` method (Finney D. J., Statistical methods in biological assay, pg 512, 1957).

[2] = biological target: T1, H1 histaminergic receptors (Rattus norvegicus, UniProt P31390); test: Affinity towards H1 histaminergic receptors ([3H]Mepyramine displacement); details: homogenates of rat brain, 25° C., 15 minutes, pH 7.5, read-out: H1-receptor binding Ki
T1 construct: in homogenates of rat brain; from tissue; host or cells: rat whole brain homogenate
T1 sequence (P31390 whole entry): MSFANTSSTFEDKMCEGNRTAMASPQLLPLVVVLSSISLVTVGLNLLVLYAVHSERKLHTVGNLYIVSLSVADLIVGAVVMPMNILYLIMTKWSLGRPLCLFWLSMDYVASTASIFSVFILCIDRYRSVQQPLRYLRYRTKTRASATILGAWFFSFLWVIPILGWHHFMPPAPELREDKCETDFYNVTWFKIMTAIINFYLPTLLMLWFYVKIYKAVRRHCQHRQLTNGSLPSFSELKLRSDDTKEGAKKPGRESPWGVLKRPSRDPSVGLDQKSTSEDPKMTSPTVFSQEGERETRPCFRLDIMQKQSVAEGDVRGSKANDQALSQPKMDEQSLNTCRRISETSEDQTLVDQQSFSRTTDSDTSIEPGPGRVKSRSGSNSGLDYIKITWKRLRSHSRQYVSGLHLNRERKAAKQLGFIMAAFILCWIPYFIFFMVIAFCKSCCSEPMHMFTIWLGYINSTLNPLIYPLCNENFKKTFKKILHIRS
Method: The incubation was performed at 25° C. for 15 minutes, in a final volume of 1 ml of 50 mM Na/K phosphate buffer, pH 7.5, in the presence of […][^3 H]Mepyramine and 1.5 mg of cerebral protein.
The test compounds were dissolved in phosphate buffer or dimethylsulfoxide (DMSO), the final concentration of DMSO was 0.5%. Incubation was terminated by filtration through glass fiber GF/B filters pre-soaked with 0.1% polyethylenimine (PEI); the radioactivity trapped by filters was counted by liquid scintillation.

Acute toxicity (LD50) = details: mouse, in vivo, ip; mice, 14 days observation
Method: The Letal Dose50 (LD50) was evaluated on mice using Swiss-Nos (Nossan, Correzzana, Milano) mice weighing 18-20 g each. The animals, divided into groups of 10 animals each (5M +5F), were on an empty stomach for 18 hrs, with water ad libitum, and kept in cages with grid floor. The compounds (I) were dissolved in water or suspended in 0.5% carboxymethylcellulose and intraperitoneally administered to the animals (10 ml/kg). The mortality occured in the tested animals within the following 6 hours was noted down. At the expiry of the 6th hour, the animals were allowed to eat up to the end of the experimentation which lasted 14 days. During this period all the toxic symptoms and the mortality occuring were noted.
The animals which died during the test period and those which were sacrificed at the end of the same, underwent autopsy for a macroscopic examination of their main organs. The experimental data were statistically compared with the X^2 method and LD50 was extrapolated by the `probit` method.

[3] = tested on: sleeping time induced by sodium pentobarbital; test: Effect on the sleeping time interval induced by pentobarbital; format: in vivo, male mice Swiss-Nos; parameters: key: IN: inactive at the dose of 100 mg/kg i.p; details: mice, i.p., 30 minutes before 40 mg/kg i.p. sodium pentobarbital; ED100 = doubles the sleeping time vs control
Method: The tests were carried out on male mice Swiss-Nos (Nossan, Correzzana, Milano) weighing 20-24 g, on an empty stomach for 18 hrs, according to the method described by Turner (Screening Methods in Pharmacology, Acad. Press, pg 70,1965). The sleep was induced by intraperitoneal administration of 40 mg/kg sodium pentobarbital. The narcosis start was considered from the moment when the animal, lying on its back, lost its straightening reflex. The narcosis end was considered from the moment when the animal recovered such reflex. The carrier or the compounds under examination were intraperitoneally administered 30 minutes before the pentobarbital administration. The resulting data are expressed as sleeping time increase per cent of the treated animals in comparison with the controls.

In the case of `CCOCCn1c(CCCN(C)C)nc2ccccc21` [Example 1, 1-(2-Ethoxyethyl)-2-(3-dimethylaminopropyl)benzimidazole], the ED50 [1] is reported as 0.00454 mg/kg, the Ki [2] is reported as 5.8 nM and the LD50 at 336 h (Acute toxicity (LD50)) is reported as 250 mg/kg. The “sleeping time % increase ED100” value [3] was “IN”.
For `CN(C)CCCc1nc2ccccc2n1Cc1ccc(F)cc1` [Example 6, 1-(4-fluorobenzyl)-2-(3-dimethylaminopropyl)benzimidazole], the ED50 [1] was 0.026 mg/kg, the Ki [2] was 6.1 nM and the LD50 at 336 h (Acute toxicity (LD50)) was over 100 mg/kg. For the same compound, the “sleeping time % increase ED100” value [3] was “IN”.
With `CCOCCn1c(CCN(C)C)nc2ccccc21` [Example 9, 1-(2-Ethoxyethyl)-2-(2-dimethylaminoethyl)benzimidazole] the ED50 [1] was 0.00501 mg/kg, the Ki [2] was 6.1 nM and the LD50 at 336 h (Acute toxicity (LD50)) was over 100 mg/kg. The “sleeping time % increase ED100” value [3] was “IN”.
For `CC(C)(C)c1ccc(C(O)CCCN2CCC(C(O)(c3ccccc3)c3ccccc3)CC2)cc1` (centres unmarked) [Terfenadine, reference compound], the ED50 [1] was 0.179 mg/kg and the LD50 at 336 h (Acute toxicity (LD50)) was over 100 mg/kg.
